The structures appear in SMILES notation.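 Briefly, cells in 96-well plates were exposed to five compound concentrations for 48 h, and endpoints were estimated by linear interpolation. GI50 is the concentration that inhibits growth by half. TGI denotes the concentration required for complete inhibition of growth.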 Where only a bound is given, the exact number is not on record here.

Here are results for nine molecules from PubChem BioAssay (NCI).

Among the test systems are MOLT-4 leukemia; HL-60(TB) leukemia; LOX IMVI melanoma; NCI-H522 lung; RXF 393 renal; MCF7 breast; A549 NSCLC; OVCAR-3 ovarian; NCI-H23 lung; SF-295 CNS.
Common to all, as to assay: NCI anticancer screen, dose series, 48 h

Take `CNC(C)[C@H]1CCC2C3CC=C4C(=O)[C@@H](NC(=O)C=C(C)C)CC[C@]4(C)C3CC[C@@]21C` (stereo not given in full): the GI50 in the assay on MOLT-4 leukemia is 1.27 µM; with HL-60(TB) leukemia it was 1.83 µM; in the assay with LOX IMVI melanoma, 1.35 µM; in the assay on NCI-H522 lung, 2.27 µM; with RXF 393 renal, 1.45 µM; with MCF7 breast it was 1.7 µM. In addition, the GI50 with A549 NSCLC was 2.46 µM; in the assay on OVCAR-3 ovarian it was 1.82 µM; in the assay with NCI-H23 lung it was 2.37 µM; with SF-295 CNS, 1.63 µM. Also, the TGI in the assay with MOLT-4 leukemia is 3.89 µM; in the assay on HL-60(TB) leukemia, 4.75 µM; in the assay with LOX IMVI melanoma it was 2.98 µM; in the assay on NCI-H522 lung, 7.55 µM; in the assay on RXF 393 renal, 3.22 µM; in the assay on MCF7 breast, 5.98 µM. Also, the TGI in the assay on A549 NSCLC was 6.82 µM; in the assay on OVCAR-3 ovarian it was 6.04 µM; in the assay on NCI-H23 lung, 12.2 µM; in the assay with SF-295 CNS, 4.41 µM.

As to `Cn1c(=S)c2[nH]c(SCCCc3ccccc3)nc2n(C)c1=O`, the TGI in the assay with MOLT-4 leukemia, with HL-60(TB) leukemia, in the assay on LOX IMVI melanoma, with NCI-H522 lung, in the assay on RXF 393 renal and in the assay on MCF7 breast was > 100 µM in each case. The TGI with A549 NSCLC is 72 µM; with OVCAR-3 ovarian, > 100 µM; in the assay on NCI-H23 lung, > 100 µM; in the assay on SF-295 CNS, 79.9 µM.

With `Cc1noc2c1-c1ccccc1C(c1ccc(Cl)cc1)=N[C@H]2CC(N)=O`, the GI50 in the assay with MOLT-4 leukemia was 7.71 µM; with HL-60(TB) leukemia, 0.398 µM; with LOX IMVI melanoma it was 2.3 µM; with NCI-H522 lung, 8.2 µM; in the assay with RXF 393 renal it was 13 µM; in the assay with MCF7 breast, 0.732 µM. Also, the GI50 in the assay on A549 NSCLC was 18.3 µM; in the assay on OVCAR-3 ovarian it was 3.75 µM; in the assay on NCI-H23 lung, 5.31 µM; in the assay on SF-295 CNS it was 4.71 µM. For the same molecule, the TGI in the assay with MOLT-4 leukemia was > 100 µM; in the assay on HL-60(TB) leukemia, > 33.8 µM; with LOX IMVI melanoma, > 100 µM; in the assay with NCI-H522 lung, > 100 µM; in the assay with RXF 393 renal it was 72.7 µM; with MCF7 breast, > 100 µM. Further, the TGI in the assay on A549 NSCLC, in the assay on OVCAR-3 ovarian, in the assay with NCI-H23 lung and with SF-295 CNS was > 100 µM throughout.

As for `CCOC(=O)c1sc(NC(=O)COc2cccc(/C=C3\CCc4cc(OC)ccc4C3=O)c2)nc1C`, the GI50 in the assay with MOLT-4 leukemia was 2.94 µM; in the assay on HL-60(TB) leukemia, 1.94 µM; in the assay on LOX IMVI melanoma it was 3.87 µM; in the assay on NCI-H522 lung it was 3.6 µM; in the assay with RXF 393 renal it was 2.83 µM; in the assay on MCF7 breast, 3.03 µM. For the same molecule, the GI50 in the assay on A549 NSCLC is 34.7 µM; in the assay with OVCAR-3 ovarian, 3.19 µM; in the assay with NCI-H23 lung it was 15.8 µM; with SF-295 CNS, 5.45 µM. Moreover, the TGI in the assay with MOLT-4 leukemia was 12.2 µM; in the assay with HL-60(TB) leukemia it was 4.92 µM; in the assay on LOX IMVI melanoma, 15.7 µM; in the assay with NCI-H522 lung, > 100 µM; in the assay with RXF 393 renal it was 8.44 µM; in the assay with MCF7 breast it was > 100 µM. For the same molecule, the TGI in the assay with A549 NSCLC is > 100 µM; in the assay on OVCAR-3 ovarian, 6.71 µM; in the assay on NCI-H23 lung, > 100 µM; in the assay on SF-295 CNS, > 100 µM.

For the molecule `CN1C(NNC(=O)c2cccnc2)=NS(=O)(=O)c2cc(Cl)ccc21`, the GI50 with MOLT-4 leukemia, with HL-60(TB) leukemia, with LOX IMVI melanoma, in the assay on NCI-H522 lung, with RXF 393 renal and in the assay on MCF7 breast was > 100 µM each time. For the same molecule, the GI50 in the assay with A549 NSCLC, with OVCAR-3 ovarian, in the assay with NCI-H23 lung and in the assay on SF-295 CNS was > 100 µM throughout. In addition, the TGI with MOLT-4 leukemia, in the assay with HL-60(TB) leukemia, in the assay with LOX IMVI melanoma, in the assay on NCI-H522 lung, with RXF 393 renal and in the assay on MCF7 breast was > 100 µM throughout. For the same molecule, the TGI with A549 NSCLC, in the assay with OVCAR-3 ovarian, with NCI-H23 lung and with SF-295 CNS was > 100 µM in each case.

For the molecule `CC1=NC(C)(COC(=O)C2(C)NC(C)(CO)CO2)COC1=O` (stereo not given), the TGI in the assay on MOLT-4 leukemia, with HL-60(TB) leukemia, in the assay with LOX IMVI melanoma, in the assay on NCI-H522 lung, in the assay on RXF 393 renal and in the assay on MCF7 breast was > 100 µM throughout. For the same molecule, the TGI in the assay on A549 NSCLC, with OVCAR-3 ovarian, in the assay on NCI-H23 lung and in the assay on SF-295 CNS was > 100 µM in each case.

For `O=[N+]([O-])c1ccc(Sc2c3ccccc3nc3ccccc23)cn1`, the TGI was 6.62 µM in the assay on MOLT-4 leukemia; > 61.7 µM with HL-60(TB) leukemia; 26.9 µM in the assay on LOX IMVI melanoma; 10.8 µM in the assay on NCI-H522 lung; 60.3 µM with RXF 393 renal; 19.1 µM in the assay with MCF7 breast. In addition, the TGI in the assay with A549 NSCLC is > 100 µM; with OVCAR-3 ovarian, 20.3 µM; in the assay with NCI-H23 lung, > 47.8 µM; with SF-295 CNS, > 100 µM.

With `COc1ccc(-c2ccc(NNC(=O)c3ccc(F)cc3)nn2)cc1OC`, the GI50 is 40.6 µM in the assay on MOLT-4 leukemia; 33.5 µM in the assay with HL-60(TB) leukemia; 67.6 µM with LOX IMVI melanoma; 54.3 µM in the assay on NCI-H522 lung; 63 µM in the assay on RXF 393 renal; 93.4 µM in the assay with MCF7 breast. Moreover, the GI50 in the assay on A549 NSCLC is 99.5 µM; with OVCAR-3 ovarian it was 79.7 µM; with NCI-H23 lung it was > 100 µM; in the assay with SF-295 CNS, > 100 µM. For the same molecule, the TGI in the assay with MOLT-4 leukemia, with HL-60(TB) leukemia, in the assay on LOX IMVI melanoma, in the assay with NCI-H522 lung, in the assay on RXF 393 renal and with MCF7 breast was > 100 µM throughout. Besides, the TGI with A549 NSCLC, with OVCAR-3 ovarian, in the assay on NCI-H23 lung and with SF-295 CNS was > 100 µM each time.

For the molecule `Cc1c2c(C(N)=O)nccc2c(C)c2c1c1ccccc1n2Cc1ccccc1`, the TGI is 62.9 µM in the assay with MOLT-4 leukemia; 47 µM in the assay on HL-60(TB) leukemia; 19.7 µM in the assay on LOX IMVI melanoma; 54.6 µM in the assay with NCI-H522 lung; 31.9 µM in the assay with RXF 393 renal; > 100 µM in the assay on MCF7 breast. In addition, the TGI in the assay with A549 NSCLC was found to be 35.4 µM; with OVCAR-3 ovarian, 21.1 µM; in the assay on NCI-H23 lung, 78.8 µM; with SF-295 CNS, 31.2 µM.
